Laboratory results taken from patent US20240269139A1, “COMPOUNDS FOR TARGETED PROTEIN DEGRADATION OF KINASES” (DANA-FARBER CANCER INSTITUTE, INC., priority 2020, published 2024).
Where two headings read alike, the source gives them in different places.

What was measured:
Type in all cases: cell-based
[1] = molecular target: T1, protein kinases (human kinome) (Homo sapiens, UniProt Q14CZ7); details: Accession Q14CZ7, direction down
T1 sequence (Q14CZ7 1-662): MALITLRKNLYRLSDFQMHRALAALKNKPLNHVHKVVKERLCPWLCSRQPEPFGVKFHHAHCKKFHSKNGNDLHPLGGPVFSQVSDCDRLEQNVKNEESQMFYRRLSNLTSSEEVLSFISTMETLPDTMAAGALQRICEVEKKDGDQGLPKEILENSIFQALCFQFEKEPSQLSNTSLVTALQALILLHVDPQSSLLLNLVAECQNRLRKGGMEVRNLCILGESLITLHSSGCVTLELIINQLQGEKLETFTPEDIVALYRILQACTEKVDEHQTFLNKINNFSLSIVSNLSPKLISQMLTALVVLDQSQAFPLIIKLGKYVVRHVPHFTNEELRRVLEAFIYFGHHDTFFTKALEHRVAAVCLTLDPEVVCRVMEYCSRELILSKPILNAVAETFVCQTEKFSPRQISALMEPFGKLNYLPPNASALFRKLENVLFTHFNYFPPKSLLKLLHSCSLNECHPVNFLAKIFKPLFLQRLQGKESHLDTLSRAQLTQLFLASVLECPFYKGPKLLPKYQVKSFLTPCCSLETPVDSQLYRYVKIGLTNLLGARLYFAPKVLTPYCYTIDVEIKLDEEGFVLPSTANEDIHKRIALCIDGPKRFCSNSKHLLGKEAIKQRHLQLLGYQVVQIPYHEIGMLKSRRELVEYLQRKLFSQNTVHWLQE

[2] = molecular target: protein kinases (human kinome) (Homo sapiens, UniProt Q15118); details: PDK1 Q15118
[3] = molecular target: protein kinases (human kinome) (Homo sapiens, UniProt P41240); details: for logFC of CSK: Accession P41240; for logFC CSK: CSK (P41240), down
[4] = molecular target: protein kinases (human kinome) (Homo sapiens, UniProt Q16584)
[5] = molecular target: T2, protein kinases (human kinome) (Homo sapiens, UniProt Q8TAS1)
T2 sequence (Q8TAS1 1-419): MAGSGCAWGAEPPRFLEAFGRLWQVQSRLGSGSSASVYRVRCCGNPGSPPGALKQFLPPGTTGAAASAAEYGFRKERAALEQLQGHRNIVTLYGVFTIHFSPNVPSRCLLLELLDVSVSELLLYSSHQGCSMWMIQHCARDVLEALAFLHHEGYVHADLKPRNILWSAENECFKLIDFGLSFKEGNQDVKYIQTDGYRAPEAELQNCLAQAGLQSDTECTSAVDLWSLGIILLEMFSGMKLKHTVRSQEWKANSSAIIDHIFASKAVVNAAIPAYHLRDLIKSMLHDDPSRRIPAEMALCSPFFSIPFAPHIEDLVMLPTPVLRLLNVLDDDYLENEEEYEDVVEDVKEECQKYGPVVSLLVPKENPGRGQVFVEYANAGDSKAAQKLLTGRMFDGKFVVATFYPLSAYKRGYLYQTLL

[6] = molecular target: protein kinases (human kinome) (Homo sapiens, UniProt Q14004); details: for logFC CDK13: Accession Q14004-1; for logFC: CDK13 (Q14004-1)
[7] = molecular target: protein kinases (human kinome) (Homo sapiens, UniProt P07947); details: YES1 (P07947)
[8] = molecular target: protein kinases (human kinome) (Homo sapiens, UniProt Q8TDR2)
Sequence of protein kinases (human kinome) (Homo sapiens, UniProt Q8TDR2) (Q8TDR2 whole entry): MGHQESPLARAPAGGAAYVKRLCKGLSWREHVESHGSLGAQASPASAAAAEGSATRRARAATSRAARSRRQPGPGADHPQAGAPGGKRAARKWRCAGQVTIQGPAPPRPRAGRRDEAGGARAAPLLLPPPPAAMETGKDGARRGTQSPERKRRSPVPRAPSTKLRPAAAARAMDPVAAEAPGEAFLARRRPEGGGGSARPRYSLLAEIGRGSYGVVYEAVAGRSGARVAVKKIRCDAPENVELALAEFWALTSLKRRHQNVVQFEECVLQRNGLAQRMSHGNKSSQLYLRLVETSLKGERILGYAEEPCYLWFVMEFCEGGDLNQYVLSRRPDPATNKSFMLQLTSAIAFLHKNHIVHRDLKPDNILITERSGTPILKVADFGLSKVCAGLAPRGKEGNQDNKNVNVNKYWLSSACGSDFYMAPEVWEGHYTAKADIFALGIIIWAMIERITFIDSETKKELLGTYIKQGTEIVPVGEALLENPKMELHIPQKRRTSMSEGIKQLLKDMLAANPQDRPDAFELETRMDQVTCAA

Sequence of protein kinases (human kinome) (Homo sapiens, UniProt Q15118) (Q15118 29-436): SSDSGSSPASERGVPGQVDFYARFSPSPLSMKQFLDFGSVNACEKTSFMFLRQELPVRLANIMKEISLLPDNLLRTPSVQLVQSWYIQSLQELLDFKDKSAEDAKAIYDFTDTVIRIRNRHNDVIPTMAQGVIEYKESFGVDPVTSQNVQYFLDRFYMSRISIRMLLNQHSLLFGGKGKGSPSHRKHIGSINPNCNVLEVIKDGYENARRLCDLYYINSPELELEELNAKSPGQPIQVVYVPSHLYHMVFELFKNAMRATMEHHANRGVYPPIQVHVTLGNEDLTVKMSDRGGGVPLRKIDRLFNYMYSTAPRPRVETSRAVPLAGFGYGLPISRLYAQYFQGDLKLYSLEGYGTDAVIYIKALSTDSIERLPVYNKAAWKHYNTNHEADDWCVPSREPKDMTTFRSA
Sequence of protein kinases (human kinome) (Homo sapiens, UniProt Q14004) (Q14004 whole entry): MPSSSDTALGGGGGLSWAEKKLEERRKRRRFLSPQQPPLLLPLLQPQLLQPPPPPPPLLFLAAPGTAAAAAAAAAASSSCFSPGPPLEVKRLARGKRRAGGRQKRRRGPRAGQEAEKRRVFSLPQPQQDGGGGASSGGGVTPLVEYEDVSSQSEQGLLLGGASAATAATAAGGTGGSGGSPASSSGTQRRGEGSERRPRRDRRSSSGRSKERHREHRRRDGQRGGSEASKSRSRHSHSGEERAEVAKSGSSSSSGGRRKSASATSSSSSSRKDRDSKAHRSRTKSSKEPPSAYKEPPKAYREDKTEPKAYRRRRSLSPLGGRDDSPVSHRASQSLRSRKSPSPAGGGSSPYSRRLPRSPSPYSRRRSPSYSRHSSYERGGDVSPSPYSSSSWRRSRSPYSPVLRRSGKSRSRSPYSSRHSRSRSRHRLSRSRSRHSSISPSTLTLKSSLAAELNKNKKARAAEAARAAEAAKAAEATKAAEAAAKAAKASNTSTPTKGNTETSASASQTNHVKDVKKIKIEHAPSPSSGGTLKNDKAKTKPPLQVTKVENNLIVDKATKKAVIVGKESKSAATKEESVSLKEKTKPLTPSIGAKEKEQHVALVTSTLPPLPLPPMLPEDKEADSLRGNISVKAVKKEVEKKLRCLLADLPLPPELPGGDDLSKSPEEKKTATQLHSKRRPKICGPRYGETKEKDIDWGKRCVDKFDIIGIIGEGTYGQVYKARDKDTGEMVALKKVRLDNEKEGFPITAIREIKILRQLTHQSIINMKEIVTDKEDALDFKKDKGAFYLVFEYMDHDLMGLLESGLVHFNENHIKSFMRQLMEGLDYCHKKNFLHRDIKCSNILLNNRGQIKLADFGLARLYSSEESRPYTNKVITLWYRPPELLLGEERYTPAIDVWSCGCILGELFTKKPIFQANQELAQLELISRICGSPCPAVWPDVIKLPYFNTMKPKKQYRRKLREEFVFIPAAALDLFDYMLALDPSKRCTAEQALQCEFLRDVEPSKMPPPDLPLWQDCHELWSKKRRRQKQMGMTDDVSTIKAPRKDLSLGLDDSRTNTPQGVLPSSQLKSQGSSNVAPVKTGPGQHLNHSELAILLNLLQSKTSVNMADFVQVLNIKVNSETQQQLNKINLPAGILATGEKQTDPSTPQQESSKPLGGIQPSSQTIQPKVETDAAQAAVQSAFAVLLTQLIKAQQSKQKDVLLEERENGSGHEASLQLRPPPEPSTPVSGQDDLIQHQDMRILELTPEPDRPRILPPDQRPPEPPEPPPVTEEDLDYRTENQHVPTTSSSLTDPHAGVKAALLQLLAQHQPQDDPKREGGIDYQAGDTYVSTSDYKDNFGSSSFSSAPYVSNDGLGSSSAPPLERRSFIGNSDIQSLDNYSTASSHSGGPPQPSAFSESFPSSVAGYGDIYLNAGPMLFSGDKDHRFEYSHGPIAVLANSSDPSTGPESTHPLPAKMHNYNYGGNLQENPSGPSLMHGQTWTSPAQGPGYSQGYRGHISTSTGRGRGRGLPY
Sequence of protein kinases (human kinome) (Homo sapiens, UniProt P07947) (P07947 whole entry): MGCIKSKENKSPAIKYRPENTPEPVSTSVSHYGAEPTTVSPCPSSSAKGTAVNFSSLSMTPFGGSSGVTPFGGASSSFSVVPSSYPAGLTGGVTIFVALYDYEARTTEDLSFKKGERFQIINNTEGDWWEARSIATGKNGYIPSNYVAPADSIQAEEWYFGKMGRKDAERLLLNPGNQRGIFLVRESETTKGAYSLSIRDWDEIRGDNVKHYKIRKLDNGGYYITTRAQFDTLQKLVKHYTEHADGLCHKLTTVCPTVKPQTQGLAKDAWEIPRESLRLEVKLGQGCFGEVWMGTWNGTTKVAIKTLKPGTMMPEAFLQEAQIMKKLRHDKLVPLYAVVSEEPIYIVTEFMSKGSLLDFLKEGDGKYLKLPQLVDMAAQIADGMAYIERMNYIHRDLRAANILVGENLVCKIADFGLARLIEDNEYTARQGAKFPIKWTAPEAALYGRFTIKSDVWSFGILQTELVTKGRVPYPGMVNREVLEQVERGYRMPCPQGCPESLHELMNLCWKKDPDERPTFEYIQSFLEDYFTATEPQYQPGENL
Sequence of protein kinases (human kinome) (Homo sapiens, UniProt Q16584) (Q16584 whole entry): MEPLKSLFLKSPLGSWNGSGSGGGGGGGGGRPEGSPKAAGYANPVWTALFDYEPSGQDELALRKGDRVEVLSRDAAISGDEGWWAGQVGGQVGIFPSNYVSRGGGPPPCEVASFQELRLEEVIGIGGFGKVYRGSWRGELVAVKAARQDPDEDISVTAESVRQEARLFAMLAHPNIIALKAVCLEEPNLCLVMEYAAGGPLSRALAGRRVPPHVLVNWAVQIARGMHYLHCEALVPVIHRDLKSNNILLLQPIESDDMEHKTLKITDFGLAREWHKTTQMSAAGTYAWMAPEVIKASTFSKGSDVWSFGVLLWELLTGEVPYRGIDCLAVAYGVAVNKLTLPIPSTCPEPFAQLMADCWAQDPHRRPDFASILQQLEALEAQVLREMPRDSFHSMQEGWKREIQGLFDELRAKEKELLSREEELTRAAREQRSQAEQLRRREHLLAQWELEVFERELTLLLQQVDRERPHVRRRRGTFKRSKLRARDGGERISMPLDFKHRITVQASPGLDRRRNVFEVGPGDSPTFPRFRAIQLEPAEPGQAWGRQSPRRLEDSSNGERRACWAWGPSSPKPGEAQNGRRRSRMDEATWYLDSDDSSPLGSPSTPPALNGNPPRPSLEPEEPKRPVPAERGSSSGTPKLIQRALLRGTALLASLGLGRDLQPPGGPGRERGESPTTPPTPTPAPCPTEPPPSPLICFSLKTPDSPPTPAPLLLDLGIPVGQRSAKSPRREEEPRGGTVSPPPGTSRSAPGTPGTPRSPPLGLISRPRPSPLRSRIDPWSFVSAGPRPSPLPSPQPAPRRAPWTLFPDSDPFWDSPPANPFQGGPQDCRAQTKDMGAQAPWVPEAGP
Sequence of protein kinases (human kinome) (Homo sapiens, UniProt P41240) (P41240 whole entry): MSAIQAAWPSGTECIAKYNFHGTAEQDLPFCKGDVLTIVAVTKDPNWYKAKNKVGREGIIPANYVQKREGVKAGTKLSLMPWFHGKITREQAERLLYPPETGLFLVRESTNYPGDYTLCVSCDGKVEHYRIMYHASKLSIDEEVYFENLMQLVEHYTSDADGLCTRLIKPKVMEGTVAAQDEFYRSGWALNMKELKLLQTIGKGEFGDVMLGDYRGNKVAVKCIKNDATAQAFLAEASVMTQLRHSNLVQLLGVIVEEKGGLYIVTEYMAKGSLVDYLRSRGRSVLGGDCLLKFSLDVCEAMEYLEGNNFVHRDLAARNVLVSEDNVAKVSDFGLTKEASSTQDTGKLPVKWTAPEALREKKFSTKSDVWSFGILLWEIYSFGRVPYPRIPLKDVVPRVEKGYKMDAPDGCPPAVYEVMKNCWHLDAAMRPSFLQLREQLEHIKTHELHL

For `CN(C)C(=O)c1cc2cnc(Nc3ccc(N4CCN(CCCCNC(=O)COc5cccc6c5C(=O)N(C5CCC(=O)NC5=O)C6=O)CC4)cn3)nc2n1C1CCCC1` (centres unmarked) [BSJ.04.132], which “logFC FASTKD3” value ([1]; experiment wp084) is on record?
Its value is −0.5428.

And the logFC ([2]; experiment wp084)?
The logFC was −0.7569.

And the “logFC PDK1” value ([2]; experiment wp084)?
The value was −0.7569.

`CC(C)(C)c1nc(-c2cccc(NS(=O)(=O)c3c(F)cccc3F)c2F)c(-c2ccnc(NCCOCCNC(=O)CCOCCOCCNc3cccc4c3C(=O)N(C3CCC(=O)NC3=O)C4=O)n2)s1` (centres unmarked) [DD.03.106] was tested. Which “logFC FASTKD3” value ([1]; experiment wp147, 4 uM) did it give?
Its value is −0.8259.

And the “logFC of CSK” value ([3]; experiment wp147, 4 uM)?
The value was −0.5149.

What about the “logFC CSK” value ([3]; experiment wp147, 4 uM) of the same compound?
Its value is −0.5149.

What about the logFC ([2]; experiment wp147, 1 uM) of the same compound?
Its logFC is −0.3363.

And the “logFC PDK1” value ([2]; experiment wp147, 1 uM)?
Its value is −0.3363.

And the logFC ([2]; experiment wp147, 4 uM)?
The logFC was −0.6592.

And the “logFC PDK1” value ([2]; experiment wp147, 4 uM)?
The value was −0.6592.

Which “logFC FASTKD3” value ([1]; experiment wp084) does the source give for `CC(=O)c1c(C)c2cnc(Nc3ccc(N4CCN(CCOCCOCCOCCNC(=O)COc5cccc6c5C(=O)N(C5CCC(=O)NC5=O)C6=O)CC4)cn3)nc2n(C2CCCC2)c1=O` (centres unmarked) [BSJ.03.123] here?
Its value is −0.4728.

And the logFC ([2]; experiment wp084)?
Its logFC is −0.5666.

And the “logFC PDK1” value ([2]; experiment wp084)?
The value was −0.5666.

What does the source list for `C=CCn1c(=O)c2cnc(Nc3ccc(N4CCN(CCCNc5cccc6c5C(=O)N(C5CCC(=O)NC5=O)C6=O)CC4)cc3)nc2n1-c1cccc(C(C)(C)O)n1` (centres unmarked) [ZNL.02.096]?
logFC FASTKD3 ([1]; experiment wp056): −0.7131; logFC ([2]; experiment wp056): −0.3685; logFC PDK1 ([2]; experiment wp056): −0.3685

With `CC(C)(C)c1nc(-c2cccc(NS(=O)(=O)c3c(F)cccc3F)c2F)c(-c2ccnc(NCCOCCNC(=O)CCOCCOCCNc3cccc4c3CN(C3CCC(=O)NC3=O)C4=O)n2)s1` (centres unmarked) [DD.03.107] as the compound, how does the “logFC FASTKD3” value ([1]; experiment wp147, 1 uM) read?
The value was −0.6939.

And the “logFC FASTKD3” value ([1]; experiment wp147, 2 uM)?
Its value is −0.6931.

What about the “logFC FASTKD3” value ([1]; experiment wp147, 4 uM) of the same compound?
Its value is −1.191.

And the logFC ([2]; experiment wp147, 1 uM)?
Its logFC is −0.4722.

And the “logFC PDK1” value ([2]; experiment wp147, 1 uM)?
Its value is −0.4722.

And the logFC ([2]; experiment wp147, 2 uM)?
The logFC was −0.4534.

What about the “logFC PDK1” value ([2]; experiment wp147, 2 uM) of the same compound?
The value was −0.4534.

And the logFC ([2]; experiment wp147, 4 uM)?
Its logFC is −1.108.

What about the “logFC PDK1” value ([2]; experiment wp147, 4 uM) of the same compound?
Its value is −1.108.

Which results are given for `CC(C)S(=O)(=O)c1ccccc1Nc1nc(Nc2ccc(N3CCN(CCOCCNC(=O)CNc4cccc5c4C(=O)N(C4CCC(=O)NC4=O)C5=O)CC3)cc2)ncc1Cl` (centres unmarked) [SK.3.91]?
logFC FASTKD3 ([1]; experiment wp160, 1 hr): −0.997; logFC of CSK ([3]; experiment wp016): −0.3254; logFC of CSK ([3]; experiment wp016, 1 uM): −0.6596; logFC of CSK ([3]; experiment wp103): −0.4343; logFC of CSK ([3]; experiment wp105): −0.7044; logFC of CSK ([3]; experiment wp107): −0.5646; logFC of CSK ([3]; experiment wp133, 4 hr): −0.5492; logFC of CSK ([3]; experiment wp160, 4 hr): −0.4976; logFC of CSK ([3]; experiment wp172): −0.4225; logFC CSK ([3]; experiment wp016, 1 uM): −0.6596; logFC CSK ([3]; experiment wp016): −0.3254; logFC CSK ([3]; experiment wp103): −0.4343; logFC CSK ([3]; experiment wp105): −0.7044; logFC CSK ([3]; experiment wp107): −0.5646; logFC CSK ([3]; experiment wp133, 4 hr): −0.5492; logFC CSK ([3]; experiment wp160, 4 hr): −0.4976; logFC CSK ([3]; experiment wp172): −0.4225; logFC MAP3K11 (Q16584) ([4]; experiment wp103): −0.7838; logFC MAP3K11 (Q16584) ([4]; experiment wp107): −2.182; logFC MAP3K11 (Q16584) ([4]; experiment wp114): −0.4774; logFC MAP3K11 (Q16584) ([4]; experiment wp133, 1 hr): −0.3986; logFC MAP3K11 (Q16584) ([4]; experiment wp133, 2 hr): −0.8441; logFC MAP3K11 (Q16584) ([4]; experiment wp133, 4 hr): −1.487; logFC UHMK1 ([5]; Accession Q8TAS1, experiment wp160, 2 hr, direction down): −0.4144; logFC UHMK1 ([5]; Accession Q8TAS1, experiment wp160, 4 hr, direction down): −0.3959; logFC UHMK1 ([5]; UHMK1 (Q8TAS1), experiment wp160, 2 hr): −0.4144; logFC UHMK1 ([5]; UHMK1 (Q8TAS1), experiment wp160, 4 hr): −0.3959; logFC CDK13 ([6]; experiment wp016): −0.6046; logFC CDK13 ([6]; experiment wp016, 1 uM): −0.5749; logFC CDK13 ([6]; experiment wp103): −0.4833; logFC CDK13 ([6]; experiment wp105): −0.4649; logFC CDK13 ([6]; experiment wp107): −0.7112; logFC CDK13 ([6]; experiment wp133, 4 hr): −0.5562; logFC CDK13 ([6]; experiment wp160, 4 hr): −0.4805; logFC CDK13 ([6]; experiment wp172): −0.859; logFC ([6]; experiment wp016, 1 uM): −0.5749; logFC CDK13 (Q14004-1) ([6]; Experiment wp172): −0.859; logFC CDK13 (Q14004-1) ([6]; experiment wp016): −0.6046; logFC CDK13 (Q14004-1) ([6]; experiment wp103): −0.4833; logFC CDK13 (Q14004-1) ([6]; experiment wp105): −0.4649; logFC CDK13 (Q14004-1) ([6]; experiment wp107): −0.7112; logFC CDK13 (Q14004-1) ([6]; experiment wp133, 4 hr): −0.5562; logFC CDK13 (Q14004-1) ([6]; experiment wp160, 4 hr): −0.4805; logFC ([7]; experiment wp133, 4 hr): −0.5025; logFC ([7]; experiment wp133, 4 hr, direction down): −0.5025

Which “logFC FASTKD3” value ([1]; experiment wp081) does the source give for `O=C(COc1cccc2c1C(=O)N(C1CCC(=O)NC1=O)C2=O)NCCCCCCCC(=O)NC1(c2ccc(-c3nc4ccn5c(=O)[nH]nc5c4cc3-c3ccccc3)cc2)CCC1` (centres unmarked) [INY.01.140.1] here?
Its value is −0.3846.

What about the logFC ([2]; experiment wp081) of the same compound?
The logFC was −0.4328.

And the “logFC PDK1” value ([2]; experiment wp081)?
The value was −0.4328.

Which “logFC FASTKD3” value ([1]; experiment wp071) does the source give for `Cc1cnc(Nc2ccc(N3CCN(CCOCCOCCNC(=O)COc4cccc5c4C(=O)N(C4CCC(=O)NC4=O)C5=O)CC3)cc2)nc1Nc1cccc(S(=O)(=O)NC(C)(C)C)c1` (centres unmarked) [JWG.118] here?
Its value is −0.4386.

How did the “logFC FASTKD3” value ([1]; experiment wp137) turn out when `CC(C)S(=O)(=O)c1ccccc1Nc1nc(Nc2ccc(N3CCN(CCOCCOCCNC(=O)CNc4cccc5c4C(=O)N(C4CCC(=O)NC4=O)C5=O)CC3)cc2)ncc1Cl` (centres unmarked) [TL12.186] was run?
The value was −0.6244.

What about the “logFC MAP3K11 (Q16584)” value ([4]; experiment wp131) of the same compound?
Its value is −1.795.

What about the “logFC MAP3K11 (Q16584)” value ([4]; experiment wp137) of the same compound?
The value was −1.493.

And the “logFC CDK13” value ([6]; experiment wp016)?
Its value is −0.5885.

And the “logFC CDK13” value ([6]; experiment wp131)?
Its value is −0.7903.

What about the “logFC CDK13” value ([6]; experiment wp137) of the same compound?
The value was −0.7062.

And the logFC ([6]; experiment wp016)?
The logFC was −0.5885.

What about the “logFC CDK13 (Q14004-1)” value ([6]; experiment wp131) of the same compound?
The value was −0.7903.

What about the “logFC CDK13 (Q14004-1)” value ([6]; experiment wp137) of the same compound?
The value was −0.7062.

What about the “logFC STK35” value ([8]; Accession Q8TDR2, experiment wp131, direction down) of the same compound?
Its value is −0.4135.

And the “logFC STK35” value ([8]; Accession Q8TDR2, experiment wp137, direction down)?
The value was −0.4079.

What about the “logFC STK35” value ([8]; STK35 (Q8TDR2), experiment wp131) of the same compound?
The value was −0.4135.

What about the “logFC STK35” value ([8]; STK35 (Q8TDR2), experiment wp137) of the same compound?
The value was −0.4079.

And the logFC ([7]; experiment wp131)?
Its logFC is −0.5437.

And the logFC ([7]; experiment wp131, direction down)?
The logFC was −0.5437.
